Assay: Solubility of agrochemical active ingredients in the solvent compositions: visual observation at 25° C., at 0° C. for 7 days (CIPAC MT39), and at 0° C. with nucleation
Type: physicochemical
Details: tebuconazole 300 g/L EC
Method: 1. Description of the Tests Performed: The formulations were prepared by dilution of various active ingredients reported in the table here below in the compositions 1 to 4 (solvents according to the invention) synthesised here above: a) Visual observation at 25° C.: the appearance of the formulation is noted and the possible presence of crystals is eventually recorded. b) Visual observation at 0° C.: the formulation is placed for a period of 7 days at 0° C. and the appearance of the formulation is noted and the possible presence of crystals is eventually recorded (CIPAC test MT39). c) Visual observation at 0° C. with nucleation (for introduction into the liquid of a crystal of the pure active ingredient): […] The appearance of the formulation is noted and the possible presence of crystals or growth of the crystal introduced is eventually recorded. The active ingredients used are commercially available.

State of the solution at +25° C.: Clear
State of the solution at 0° C. (7 days at 0° C.): Clear
State of the solution at 0° C. after seeding (crystal introduced, further 7 days at 0° C.): Crystal
SMILES: CN1CCCC1=O [Solvent 6, N-methylpyrrolidone]

— patent publication US9420780B2, “Composition, method for producing the composition, and phytosanitary formulation containing same” (RHODIA OPERATIONS, priority 2011, dated 2016)
